Among the data in the NIST ThermoML archive (doi:10.1021/acs.jced.9b00041) are mass density values, retold here.

The nature of data set [1]: wn = mass fraction of the nth substance listed. The conditions noted are these: 298.15 K; 100 kPa; Liquid; Vibrating tube method; w2 = 0.089.
The conditions of data set [2]: 298.15 K; 101.33 kPa; Liquid; Vibrating tube method.

Numbers after ± are expanded uncertainties.

For orientation: mass density means the mass of a sample divided by its volume. `CC(O)C(=O)O` (centres undefined) [2-hydroxypropanoic acid] + O: the mass density in data set [1] was found to be 1202.57 ± 10 kg/m3.

For `CC(=O)CCC(=O)O` [4-oxopentanoic acid], the mass density in data set [2] stood at 1135.71 ± 10 kg/m3. On the same count and under the same terms, with `CC(O)C(=O)O` (centres undefined) [2-hydroxypropanoic acid] the figure was 1202.57 ± 35 kg/m3; with `CCCC[n+]1ccn(C)c1.O=S(=O)([N-]S(=O)(=O)C(F)(F)F)C(F)(F)F`, 1436.46 ± 10 kg/m3.
